The source of these data is US20240132477A1, “Benzimidazole Derivatives and Their Use As Inhibitors of ITK For The Treatment of Skin Disease” (PFIZER INC., priority 2020, published 2024).

In general, inhibition refers to the drop in the measured response relative to a control, in per cent. A word on the IC50: it is the midpoint of a concentration-inhibition curve.

The target in assay [1] is Tropomyosin Receptor Kinase A (TRKA, NTRK1 enzyme) (Homo sapiens (Human), UniProt P04629). Put plainly: TRKA (NTRK1) ThermoFisher Z'-LYTE assay. It is filed as biochemical. As to conditions: read-out: TRKA % inhibition. The method, then: Tropomyosin Receptor Kinase a (TRKA) Activity, % Inhibition
TRKA, also known as neurotrophic tyrosine kinase receptor type 1 (NTKR1) activity was determined by measuring the effect of a test compound on the activity against the NTRK1 enzyme using the ThermoFisher Z′-LYTE Assay fluorescence-based coupled enzyme format (www.thermofisher.com/selectscreen). Test compounds were screened at a fixed concentration of 1 uM and the % inhibition was determined compared to controls at a fixed ATP concentration of 1 mM. The resulting effect value for the tested compound was compared to the assay controls to determine the % inhibition (%). % Inhibition (%) values for compounds of the invention are presented in the Table that follows.

Assay [2] relates to IL-2 in supernatants from activated CD4+ human T-cells. The assay can be described thus: IL-2 inhibition in supernatants from activated CD4+ human T-cells (cisbio HTRF). It is filed as cell-based. As to conditions: T-cell, read-out: IL-2 IC50. The protocol:
IL-2-Inhibition Activity, IC50 (uM)
IL-2 inhibition activity in supernatants from activated CD4+ human T-cells was determined by measuring the effect of a test compound on the activity using the cisbio HTRF™ technology.
Human CD4+ T cells were activated with CD3/CD28 for 3 days and expanded for an additional 4-6 days (7 to 9 days total). On day 0, frozen CD4+ T cells were thawed, treated with CD3/CD28 Dynabeads, and incubated at 37° C./5% CO2. On day 3, the beads were removed, and the cells were diluted to 5×10^5 cells/cm^2, placed in G-Rex10 flask, and incubated at 37° C./5% CO2. On day 7 to day 9 the cells were removed from the G-Rex flasks, counted and diluted back to 1×10^6 cells/ml in standard tissue culture flask.
The expanded CD4+ T-cells were centrifuged at 300×g for 10 minutes and resuspended to 0.5 million cells per ml (30,000 cells/well). 60 μl of CD4+ T cells were added per well to a 384 well plate containing 0.1 μL of varying concentrations of test compound in DMSO. The plates were incubated for 15 min at 37° C./5% CO2. 20 μl of diluted ImmunoCult™ (STEMCELL Technologies, 1:12.5 in T cell assay media) were added to all wells of the plate (1:50 final assay concentration). The plates were incubated for an additional 20 to 24 hrs at 37° C./5% CO2. The plates were centrifuged at 300×g for 10 minutes. 16 μL of supernatant was removed and combined with 4 μl of IL-2 HTRF Abs. (cisbio kit). Plates were incubated for 3 hours at RT and read with an EnVision plate reader at 665 nm and 615 nm wavelengths. The concentrations and resulting effect values for the tested compound were plotted and the concentration of compound required for 50% effect (IC50) was determined with the four-parameter logistic dose response equation.
A general note: TR-FRET usually uses a lanthanide donor and a delayed reading to cut background.

The target in assay [3] is IL-2-Inducible T-Cell Kinase (ITK) (Homo sapiens (Human), UniProt Q08881). The assay can be described thus: ITK enzyme assay. The format is biochemical. Particulars: geometric mean of count n; ITK FL enzyme, BTK peptide substrate. The method, then:
IL-2-Inducible T-Cell Kinase (ITK) Activity, IC50 (uM)
ITK activity was determined by measuring the effect of a test compound in an ITK enzyme assay.
1.0 M HEPES Buffer pH 7.5 solution was prepared as follows: 238.3 g HEPES free acid (Sigma) and 800 mL of water were combined, and the mixture was stirred until complete dissolution. The pH was adjusted to 7.5 via titration with 5N NaOH and the volume adjusted to 1000 mL. The solution was filtered and sterilized.
ITK assay buffer was prepared as follows: 50 mL of HPLC-grade water was treated with 2 mL of 1.0 M HEPES Buffer, 500 μL of 2% Gelatin (Sigma), 1.0 mL of aqueous MgCl2 solution (1.0 M), and 1.0 mL of aqueous glutathione solution (0.5 M), and the solution was mixed. The solution was brought to 99 mL in a graduated cylinder by addition of water and sterilized through a 0.2 μm filter. 0.1 mL of Brij-35™ Surfact-AmpS™ Detergent Solution (10% w/v aqueous solution, ThermoFisher) and 1.0 mL of ATP (Teknova, 100 mM) were added and the solution was mixed.
Preparation of 1.33×ITK enzyme solution was as follows: 49.99 mL of ITK assay buffer was treated with 4.1 μL of ITK enzyme (ITK FL (N-Flag and C-His tagged, ˜72 kDa) Lake Pharma, 0.25 mg/ml in a buffer containing 25 mM Tris pH 7.8, 150 mM NaCl, 10% glycerol and 2 mM TCEP) and the mixture was gently agitated. The resulting solution was stored on ice. 30 Minutes prior to use, the enzyme solution was removed from ice and equilibrated to RT by incubation in a RT water bath.
Preparation of 4×ITK substrate solution was as follows: 50 mL of ITK assay buffer was treated with 100 μL of BTK peptide (China Peptide Company, 2 mM stock solution in DMSO). The tube was capped, mixed by gently inverting the tube, and then stored on ice. 30 Minutes prior to use, the substrate solution was removed from ice and equilibrated to RT by incubation in a RT water bath.
At the time of assay, 7.5 μL of the 1.33×ITK enzyme solution was added to plate wells containing 0.1 μL of varying concentrations of test compound in DMSO. The plate was incubated 30 min at RT. The plate wells were each treated with 2.5 uL of the 4×ITK substrate solution and the plate was sealed (TopSeal™, Perkin Elmer). The plate was spun at 1000 rpm for 30 sec and then incubated for 60 min at RT. The seal was removed, and each well was treated with 10 μL of Stop/Detect Buffer (20 mM HEPES pH 7.5, 0.01% gelatin, 1 nM LANCE PT66 (Perkin Elmer), 16.5 μg/ml Surelight APC (Perkin Elmer), 10 mM EDTA, 250 mM NaCl). The plate was again covered and was spun at 1000 rpm for 30 seconds. The plate was allowed to incubate overnight at RT and in a closed carrier to reduce dehydration. The seal was removed, and the fluorescence was read with a plate reader with […]. The concentrations and resulting effect values for the tested compound were plotted and the concentration of compound required for 50% effect (IC50) was determined with the four-parameter logistic dose response equation.

[4] abbreviates: test compound 1 uM, ATP 1 mM, arithmetic mean of count n.
Where [5] appears, read: geometric mean of count n, activated CD4+ human T-cells, 20 to 24 hrs.

Read-outs that look alike come from different tables or passages of the source.

Chain of IL-2-Inducible T-Cell Kinase (ITK) (Q08881 whole entry): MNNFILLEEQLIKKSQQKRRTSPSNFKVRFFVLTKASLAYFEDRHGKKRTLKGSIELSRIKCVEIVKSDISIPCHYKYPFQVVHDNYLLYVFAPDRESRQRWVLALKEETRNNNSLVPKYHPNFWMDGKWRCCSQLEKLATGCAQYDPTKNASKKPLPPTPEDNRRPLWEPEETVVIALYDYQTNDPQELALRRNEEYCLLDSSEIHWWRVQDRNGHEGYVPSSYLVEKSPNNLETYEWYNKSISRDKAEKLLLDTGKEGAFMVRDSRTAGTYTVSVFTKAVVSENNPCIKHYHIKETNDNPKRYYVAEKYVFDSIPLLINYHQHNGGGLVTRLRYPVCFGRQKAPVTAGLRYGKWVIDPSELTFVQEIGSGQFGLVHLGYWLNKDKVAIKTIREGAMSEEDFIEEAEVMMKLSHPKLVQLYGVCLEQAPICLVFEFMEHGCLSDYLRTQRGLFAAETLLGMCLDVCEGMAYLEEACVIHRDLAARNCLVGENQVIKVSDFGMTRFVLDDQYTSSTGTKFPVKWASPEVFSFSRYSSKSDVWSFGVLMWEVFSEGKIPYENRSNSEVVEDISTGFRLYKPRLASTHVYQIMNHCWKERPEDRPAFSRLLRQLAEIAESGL
Chain of Tropomyosin Receptor Kinase A (TRKA, NTRK1 enzyme) (P04629 33-796): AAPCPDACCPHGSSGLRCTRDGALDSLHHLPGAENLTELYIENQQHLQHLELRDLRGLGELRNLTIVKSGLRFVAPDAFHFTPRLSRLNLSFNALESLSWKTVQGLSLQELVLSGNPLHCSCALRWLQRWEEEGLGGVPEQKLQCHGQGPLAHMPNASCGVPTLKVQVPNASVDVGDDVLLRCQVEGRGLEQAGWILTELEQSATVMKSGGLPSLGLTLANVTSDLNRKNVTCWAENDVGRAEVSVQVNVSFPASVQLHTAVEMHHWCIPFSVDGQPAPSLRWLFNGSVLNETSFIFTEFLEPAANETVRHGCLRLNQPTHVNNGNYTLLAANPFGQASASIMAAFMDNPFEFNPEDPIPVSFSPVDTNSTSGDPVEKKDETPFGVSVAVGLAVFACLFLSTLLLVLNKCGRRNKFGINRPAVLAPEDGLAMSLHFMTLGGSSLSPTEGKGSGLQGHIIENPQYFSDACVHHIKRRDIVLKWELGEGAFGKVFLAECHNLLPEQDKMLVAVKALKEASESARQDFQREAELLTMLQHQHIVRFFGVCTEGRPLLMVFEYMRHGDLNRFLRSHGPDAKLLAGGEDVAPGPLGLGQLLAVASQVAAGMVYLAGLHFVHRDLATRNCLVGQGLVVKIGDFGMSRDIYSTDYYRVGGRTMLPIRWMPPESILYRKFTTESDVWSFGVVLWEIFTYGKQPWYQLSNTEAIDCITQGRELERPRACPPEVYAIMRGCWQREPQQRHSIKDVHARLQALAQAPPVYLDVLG

With `CC(=O)Nc1cc2nc(-c3n[nH]c4c3C[C@@H]3C[C@]3(C)C4)[nH]c2cc1C` [Example 4, N-(6-methyl-2-((4aS,5aR)-5a-methyl-1,4,4a,5,5a,6-hexahydrocyclopropa[f]indazol-3-yl)-1H-benzo[d]imidazol-5-yl)acetamide], the inhibition at 1 µM in assay [1] (setting [4]) worked out at 105%. Also, the figures for the concentration for half-maximal inhibition (IC50) in assay [2] (setting [5]) and in assay [3] were 391 nM and 71 nM, respectively.

On to `COc1cc2[nH]c(-c3n[nH]c4c3C[C@@H]3C[C@]3(C)C4)nc2cc1N(C)C(C)=O` [Example 6, N-(6-methoxy-2-((4aS,5aR)-5a-methyl-1,4,4a,5,5a,6-hexahydrocyclopropa[f]indazol-3-yl)-1H-benzo[d]imidazol-5-yl)-N-methylacetamide], for which, in assay [1] (setting [4]), the inhibition at 1 µM came out at 103%. Moreover, the IC50 turned out to be 173 nM in assay [2] (setting [5]) and 37 nM in assay [3].

With `COCCOc1cc2[nH]c(-c3n[nH]c4c3C[C@@H]3C[C@]3(C)C4)nc2cc1N(C)C(C)=O` [Example 7, N-(6-(2-methoxyethoxy)-2-((4aS,5aR)-5a-methyl-1,4,4a,5,5a,6-hexahydrocyclopropa[f]indazol-3-yl)-1H-benzo[d]imidazol-5-yl)-N-methylacetamide], in assay [1] (setting [4]), the inhibition at 1 µM turned out to be 105%. Moreover, the IC50 was found to be 595 nM in assay [2] (setting [5]) and 13 nM in assay [3].

For the compound `CC(=O)N(C)c1cc2nc(-c3n[nH]c4c3C[C@@H]3C[C@]3(C)C4)[nH]c2cc1C` [Example 17, N-Methyl-N-(6-methyl-2-((4aS,5aR)-5a-methyl-1,4,4a,5,5a,6-hexahydrocyclopropa[f]indazol-3-yl)-1H-benzo[d]imidazol-5-yl)acetamide], the inhibition at 1 µM in assay [1] (setting [4]) is 100%. For the same compound, the values for the IC50 in assay [2] (setting [5]) and in assay [3] were 81 nM and 10 nM, respectively.

With `Cc1cc2[nH]c(-c3n[nH]c4c3C[C@@H]3C[C@]3(C)C4)nc2cc1N(C)C(=O)[C@H]1CCCO1` [Example 23, (R)-N-Methyl-N-(5-methyl-2-((4aS,5aR)-5a-methyl-1,4,4a,5,5a,6-hexahydrocyclopropa[f]indazol-3-yl)-1H-benzo[d]imidazol-6-yl)tetrahydrofuran-2-carboxamide], the inhibition at 1 µM in assay [1] (setting [4]) worked out at 97%. The values for the IC50 in assay [2] (setting [5]) and in assay [3] were 89 nM and 10 nM, respectively.

`Cc1cc2[nH]c(-c3n[nH]c4c3C[C@@H]3C[C@]3(C)C4)nc2cc1N(C)C(=O)[C@@H]1CCOC1` [Example 29, (R)-N-Methyl-N-(6-methyl-2-((4aS,5aR)-5a-methyl-1,4,4a,5,5a,6-hexahydrocyclopropa[f]indazol-3-yl)-1H-benzo[d]imidazol-5-yl)tetrahydrofuran-3-carboxamide]: the inhibition at 1 µM in assay [1] (setting [4]) was 97%. Also, the IC50 is 61 nM in assay [2] (setting [5]) and 6 nM in assay [3].

On to `Cc1cc2[nH]c(-c3n[nH]c4c3C[C@@H]3C[C@]3(C)C4)nc2cc1N(C)C(=O)CN(C)C(=O)C(C)C` [Example 30, N-Methyl-N-(2-(methyl(6-methyl-2-((4aS,5aR)-5a-methyl-1,4,4a,5,5a,6-hexahydrocyclopropa[f]indazol-3-yl)-1H-benzo[d]imidazol-5-yl)amino)-2-oxoethyl)isobutyramide], for which, in assay [1], the inhibition at 1 µM is 98%. The IC50 in assay [2] (Homo sapiens) worked out at 51 nM; in assay [3], 3 nM.

With `Cc1cc2[nH]c(-c3n[nH]c4c3C[C@@H]3C[C@]3(C)C4)nc2cc1N(C)C(=O)CN1CCCC1=O` [Example 31, N-Methyl-N-(6-methyl-2-((4aS,5aR)-5a-methyl-1,4,4a,5,5a,6-hexahydrocyclopropa[f]indazol-3-yl)-1H-benzo[d]imidazol-5-yl)-2-(2-oxopyrrolidin-1-yl)acetamide], the inhibition at 1 µM in assay [1] (setting [4]) worked out at 98%. The figures for the IC50 in assay [2] (setting [5]) and in assay [3] were 69 nM and 3 nM, respectively.

Take `CC(=O)N(CC(=O)N(C)c1cc2nc(-c3n[nH]c4c3C[C@@H]3C[C@]3(C)C4)[nH]c2cc1C)C(C)C` [Example 35, 2-(N-Isopropylacetamido)-N-methyl-N-(6-methyl-2-((4aS,5aR)-5a-methyl-1,4,4a,5,5a,6-hexahydrocyclopropa[f]indazol-3-yl)-1H-benzo[d]imidazol-5-yl)acetamide]: the inhibition at 1 µM in assay [1] (setting [4]) is 97%. The IC50 came out at 62 nM in assay [2] (setting [5]) and 5 nM in assay [3].

With `CCOCC(=O)N(C)c1cc2nc(-c3n[nH]c4c3C[C@@H]3C[C@]3(C)C4)[nH]c2cc1C` [Example 38, 2-Ethoxy-N-methyl-N-(6-methyl-2-((4aS,5aR)-5a-methyl-1,4,4a,5,5a,6-hexahydrocyclopropa[f]indazol-3-yl)-1H-benzo[d]imidazol-5-yl)acetamide], in assay [1] (setting [4]), the inhibition at 1 µM stood at 97%. Further, the IC50 is 74 nM in assay [2] (setting [5]) and 7 nM in assay [3].
